# In patent publication US20220387405A1, “METHODS OF TREATMENT WITH N-((R)-1-(3-CHLOROPYRIDIN-2-YL)-2,2,2-TRIFLUOROETHYL)-2-((S)-2,6-DIOXOPIPERIDIN-3-YL)-1-OXOISOINDOLINE-5-CARBOXAMIDE” (CELGENE CORPORATION, priority 2021, published 2022):
# How the values were obtained:
# [1] = system: human peripheral blood (PB) lymphocytes; test: In vitro mammalian cell micronucleus test; conditions: 4 hours with and without S9, 24 hours without S9; compared with negative controls
# Procedure: Compound 1 was tested in the in vitro mammalian cell micronucleus test in human peripheral blood (PB) lymphocytes in the presence and absence of a metabolic activation system, Aroclor-induced rat liver fraction (S9), for 4 hours, and in the absence of S9 for 24 hours. The highest concentration tested was 481 μg/mL. Dimethyl sulfoxide (DMSO) was used as the solvent. […] In addition, 2 lower concentrations with appropriate concentration and cytotoxicity spacing were chosen for micronucleus scoring in each regime.
# [2] = system: Normal T lymphocytes in BM samples; test: PharmaFlow test, normal T lymphocytes in AML patient BM samples; assay type: cell-based, human; conditions: BM samples of AML patients; for Compound 1 all but 1 patient
# [3] = system: leukemic cells from TP53 WT AML patients; test: PharmaFlow test (Vivia), cytotoxic effect on leukemic cells in AML patient BM samples; assay type: cell-based, human; conditions: AML patient samples
SMILES,proportion of micronucleated binucleate cells (MBC) [1],cytotoxicity in T lymphocytes [2],cytotoxicity in leukemic cells [3]
"O=P1(N(CCCl)CCCl)NCCCO1 (stereo not shown) [cyclophosphamide monohydrate, reference compound]",statistically significant increases,–,–
"COC(=O)Nc1nc2ccc(C(=O)c3cccs3)cc2[nH]1 [nocodazole, reference compound]",statistically significant increases,–,–
"COc1cc(C(=O)O)ccc1NC(=O)[C@@H]1N[C@@H](CC(C)(C)C)[C@](C#N)(c2ccc(Cl)cc2F)[C@H]1c1cccc(Cl)c1F [RG7388, idasanutlin, reference compound]",–,pan-cytotoxicity,pan-cytotoxicity
